Each structure is given as a SMILES string.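 In this assay, cells in 96-well plates receive the compound at five concentrations for 48 hours. Endpoints are linearly interpolated between the surrounding concentrations. GI50 marks 50% less growth. TGI: total growth inhibition.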

Some test systems named below: ACHN renal; HCT-116 colon; HS 578T breast; LOX IMVI melanoma; M14 melanoma; MOLT-4 leukemia; RPMI-8226 leukemia; SF-268 CNS; SK-OV-3 ovarian; SW-620 colon.
Holding throughout (experiment): NCI-60 cell line screen, 48 h

For the molecule `CC(=O)N[C@H](C(=O)N[C@@H](CCCNC(=N)N)C(=O)N[C@@H](CCCCN)C(=O)N[C@@H](CCCNC(=N)N)C(=O)N[C@]1(C)CCCCCC/C=C\CCC[C@@](C)(C(=O)N[C@@H](CCCNC(=N)N)C(=O)N[C@@H](CCC(=O)O)C(=O)N[C@@H](CC(C)C)C(=O)N[C@H](C(=O)N[C@@H](CCC(=O)O)C(N)=O)C(C)C)NC(=O)[C@H](CCC(N)=O)NC(=O)[C@H](CC(C)C)NC(=O)[C@H](CC(C)C)NC(=O)[C@H](CCCNC(=N)N)NC(=O)[C@H](CCCNC(=N)N)NC(=O)[C@H](CC(C)C)NC1=O)C(C)C`, the GI50 with ACHN renal is 8.06 µM; in the assay with HCT-116 colon it was 12 µM; in the assay on HS 578T breast, 1.46 µM; in the assay on LOX IMVI melanoma, 10.1 µM; in the assay on M14 melanoma it was 2.13 µM; with MOLT-4 leukemia, 8.1 µM. For the same molecule, the GI50 is 6.48 µM in the assay on RPMI-8226 leukemia, 1.47 µM in the assay on SF-268 CNS, 3.72 µM in the assay on SK-OV-3 ovarian and 7.84 µM in the assay on SW-620 colon. Also, the TGI in the assay with ACHN renal was found to be 28.1 µM; with HCT-116 colon, 37.6 µM; in the assay with HS 578T breast it was 4.14 µM; with LOX IMVI melanoma, 43 µM; in the assay with M14 melanoma it was 27.6 µM; with MOLT-4 leukemia, 29.4 µM. Further, the TGI was 20.9 µM with RPMI-8226 leukemia, 4.58 µM with SF-268 CNS, 27.7 µM with SK-OV-3 ovarian and 20.2 µM in the assay with SW-620 colon.

Consider `O=C1C(Cl)=C(Nc2ccccc2)C(=O)c2ccccc21`, for which the GI50 was 1.63 µM in the assay with ACHN renal; 1.83 µM in the assay on HCT-116 colon; 3.05 µM with HS 578T breast; 0.856 µM with LOX IMVI melanoma; 1.88 µM with M14 melanoma; 3.34 µM in the assay with MOLT-4 leukemia. Also, the GI50 was 2.28 µM with RPMI-8226 leukemia, 1.69 µM in the assay with SF-268 CNS, 5.43 µM with SK-OV-3 ovarian and 1.09 µM in the assay with SW-620 colon. Further, the TGI is 3.13 µM in the assay with ACHN renal; 3.53 µM with HCT-116 colon; 30.5 µM in the assay with HS 578T breast; 2.86 µM in the assay with LOX IMVI melanoma; 3.57 µM in the assay with M14 melanoma; over 100 µM with MOLT-4 leukemia. Besides, the TGI was 6.84 µM in the assay on RPMI-8226 leukemia, 3.27 µM in the assay with SF-268 CNS, 18.7 µM in the assay on SK-OV-3 ovarian and 2.92 µM in the assay with SW-620 colon.

On to `Cc1ccc2c(c1)Sc1ccc(N=NN(C)C)cc1N2C`, for which the TGI in the assay with ACHN renal, with HCT-116 colon, in the assay on HS 578T breast, with LOX IMVI melanoma, in the assay on M14 melanoma and with MOLT-4 leukemia was over 100 µM in each case. For the same molecule, the TGI in the assay with RPMI-8226 leukemia, with SF-268 CNS, in the assay on SK-OV-3 ovarian and with SW-620 colon was over 100 µM in each case.

As to `c1ccc2nc3c(cc4ccccn43)nc2c1`, the GI50 with ACHN renal is 60.2 µM; in the assay on HCT-116 colon, 23.5 µM; in the assay on HS 578T breast it was 61.7 µM; in the assay with LOX IMVI melanoma, 47.1 µM; in the assay with M14 melanoma, over 100 µM; in the assay on MOLT-4 leukemia, 53.1 µM. Besides, the GI50 with RPMI-8226 leukemia was over 100 µM; in the assay with SF-268 CNS, over 100 µM; in the assay with SK-OV-3 ovarian, 97.4 µM; with SW-620 colon, over 100 µM. The TGI in the assay with ACHN renal, with HCT-116 colon, in the assay with HS 578T breast, in the assay on LOX IMVI melanoma, in the assay with M14 melanoma and in the assay with MOLT-4 leukemia was over 100 µM each time. The TGI in the assay on RPMI-8226 leukemia, in the assay with SF-268 CNS, in the assay with SK-OV-3 ovarian and in the assay on SW-620 colon was over 100 µM throughout.

As to `O=S(=O)(CCOCc1ccc(-c2ccc3ncnc(Nc4ccc(OCc5cccc(F)c5)c(Cl)c4)c3c2)o1)c1ccccc1`, the GI50 with ACHN renal is 1.86 µM; in the assay with HCT-116 colon it was over 25 µM; in the assay on HS 578T breast, over 11 µM; in the assay on LOX IMVI melanoma, over 25 µM; in the assay on M14 melanoma, over 25 µM; in the assay on MOLT-4 leukemia, over 25 µM. Also, the GI50 was over 25 µM in the assay with RPMI-8226 leukemia, over 25 µM with SF-268 CNS, 0.143 µM with SK-OV-3 ovarian and over 25 µM in the assay with SW-620 colon. Besides, the TGI with ACHN renal, in the assay on HCT-116 colon, in the assay with HS 578T breast, in the assay with LOX IMVI melanoma, in the assay with M14 melanoma and with MOLT-4 leukemia was over 25 µM throughout. Further, the TGI in the assay with RPMI-8226 leukemia, in the assay with SF-268 CNS, with SK-OV-3 ovarian and with SW-620 colon was over 25 µM in each case.

Source of the values: PubChem BioAssay (NCI).
